Reference: patent US10239871B2, “Compounds and methods for regulating integrins” (ADHAERE PHARMACEUTICALS, INC., priority 2012, dated 2019)

Assays:
[1] = Solubility of LA1 in oral vehicle formulations and simulated biological fluids (LC-MS); type: physicochemical
Method: Pilot oral vehicle evaluation. […] Subsequently, re-dispersability of LA1 was tested using two simulated biological fluids—simulated gastric fluid (SGF) and Fasted State Simulated […] Fluid (FaSSIF).

[2] = system: MAPK signaling (pERK, pJNK) in K562 WT cells; experiment: Western blotting of pERK and pJNK in K562 WT cells; type: cell-based, human; details: absence of ligand fibrinogen
Method: K562 WT cells were incubated with LA1, LA2, LA15 (15 μM), or fibrinogen (200 μg) in serum-free medium for 1 hour at 37° C. Cell lysates were resolved on 4-12% NuPAGE Bis-Tris SDS-PAGE gels using MES running buffer and transferred to a polyvinylidene difluoride (PVDF) membrane (ThermoScientific) using established protocols. Membranes were incubated with a 1:1,000 dilution of the anti-phospho-protein antibodies (anti phospho-p44/42 MAPK (pERK1/2) antibody (Thr202/Tyr204, Cell Signaling) or anti-phospho-SAPK/JNK (pJNK) antibody (Thr183/Tyr185, Cell Signaling #81E11)), or with an antibody against either total ERK1/2 (p44/42 MARK (Erk1/2), Cell Signaling #137F5) or total JNK (SAPK/JNK, Cell Signaling #56G8) and developed according to the manufacturer's instructions (ThermoScientific). Proteins were quantified by densitometry using ImageJ software. […]
Second, an effect of integrin ligation, macro clustering and redistribution in the plasma membrane is the triggering of outside-in intracellular signaling in cells via various MAPKs. […] In FIGS. 6A-6B, immunoblot results from two independent experiments were quantified using ImageJ software and ratio of phosphorylated protein to total protein was determined. Histograms showing this quantitation for each set are also shown. […] In FIGS. 6C-6D, immunoblot results from two independent experiments were quantified and are also shown, as in 6A and 6B.

CD11b/CD18 [3] = target: T1, CD11b/CD18 (Mus musculus, UniProt P05555); experiment: Cell adhesion assay, RAW 264.7 cells on immobilized fibrinogen; type: cell-based, murine; details: vs basal 1 mM Ca2+ and Mg2+
T1 construct: that have constitutive CD11b/CD18 surface expression were used; host or cells: RAW 264.7 murine macrophage cell line
Method: (§1) K562 cells stably transfected with plasmid encoding wild-type integrin CD11b/CD18 (K562 WT cells) have been described previously and were maintained in Iscove's Modified Dulbecco's Medium (IMDM) supplemented with 10% FBS and G418 (0.5 mg/ml). The murine macrophage cell line (RAW 264.7 cells) was obtained from ATCC and the cells were maintained in DMEM supplemented with 10% heat-inactivated FBS according to the manufacturer's instructions. The primary rat peritoneal macrophages were isolated from the wild type Fisher 344 rats that had been previously injected with 5 mL of Brewer's thioglycolate broth (Sigma-Aldrich). Macrophage purity was directly analyzed by single channel flow cytometry using rat macrophage specific monoclonal antibodies ED1 (AbD Serotec, Raleigh, N.C.), WT.5 (BD Biosciences) and His36 (BD Biosciences). Purity was typically >85%. Macrophages were used in assays immediately upon isolation.
(§2) Cell adhesion assays using K562 WT, murine RAW 264.7 cells and the primary rat macrophages were performed as previously described and used immobilized fibrinogen as the ligand of CD11b/CD18 [49]. […] The remaining adherent cells were fixed using 4% formaldehyde and quantified by imaging microscopy as previously described (22, 63). […]

MyD88 = MyD88 levels in THP-1 cells; type: cell-based, human
Text: TLR4-mediated signaling requires participation of the adaptor protein MyD88 (43) and MyD88−/− mice are protected from kidney damage following IRI. TLR4 activation leads to the binding and stabilization of adaptor protein MyD88, which recruits downstream kinases to initiate Nf-kB-mediated pro-inflammatory signaling. Subsequently, TLR4 signaling induces a negative feedback loop by endogenous activation of CD11b/CD18, which activates Syk to phosphorylate MyD88, tagging it for ubiquitin-mediated destruction. […] A pilot experiment was carried out to validate this hypothesis by determining the levels of MyD88 in human monocytic THP-1 cells.

CD11b/CD18 [4] = experiment: Cell adhesion assay, primary rat macrophages on immobilized fibrinogen; type: cell-based; details: vs non-activating Ca2+ and Mg2+
Method: as §1, §2

[5] = system: allograft transplantation; experiment: Allograft transplantation model (kidney); type: in vivo; details: co-treatment with cyclosporine
[6] = system: neutrophils, hepatocytes, hERG; experiment: Pilot in vitro ADME assay (neutrophils, hepatocytes, hERG); details: at up to 100 µM

T1 sequence (P05555 17-1153): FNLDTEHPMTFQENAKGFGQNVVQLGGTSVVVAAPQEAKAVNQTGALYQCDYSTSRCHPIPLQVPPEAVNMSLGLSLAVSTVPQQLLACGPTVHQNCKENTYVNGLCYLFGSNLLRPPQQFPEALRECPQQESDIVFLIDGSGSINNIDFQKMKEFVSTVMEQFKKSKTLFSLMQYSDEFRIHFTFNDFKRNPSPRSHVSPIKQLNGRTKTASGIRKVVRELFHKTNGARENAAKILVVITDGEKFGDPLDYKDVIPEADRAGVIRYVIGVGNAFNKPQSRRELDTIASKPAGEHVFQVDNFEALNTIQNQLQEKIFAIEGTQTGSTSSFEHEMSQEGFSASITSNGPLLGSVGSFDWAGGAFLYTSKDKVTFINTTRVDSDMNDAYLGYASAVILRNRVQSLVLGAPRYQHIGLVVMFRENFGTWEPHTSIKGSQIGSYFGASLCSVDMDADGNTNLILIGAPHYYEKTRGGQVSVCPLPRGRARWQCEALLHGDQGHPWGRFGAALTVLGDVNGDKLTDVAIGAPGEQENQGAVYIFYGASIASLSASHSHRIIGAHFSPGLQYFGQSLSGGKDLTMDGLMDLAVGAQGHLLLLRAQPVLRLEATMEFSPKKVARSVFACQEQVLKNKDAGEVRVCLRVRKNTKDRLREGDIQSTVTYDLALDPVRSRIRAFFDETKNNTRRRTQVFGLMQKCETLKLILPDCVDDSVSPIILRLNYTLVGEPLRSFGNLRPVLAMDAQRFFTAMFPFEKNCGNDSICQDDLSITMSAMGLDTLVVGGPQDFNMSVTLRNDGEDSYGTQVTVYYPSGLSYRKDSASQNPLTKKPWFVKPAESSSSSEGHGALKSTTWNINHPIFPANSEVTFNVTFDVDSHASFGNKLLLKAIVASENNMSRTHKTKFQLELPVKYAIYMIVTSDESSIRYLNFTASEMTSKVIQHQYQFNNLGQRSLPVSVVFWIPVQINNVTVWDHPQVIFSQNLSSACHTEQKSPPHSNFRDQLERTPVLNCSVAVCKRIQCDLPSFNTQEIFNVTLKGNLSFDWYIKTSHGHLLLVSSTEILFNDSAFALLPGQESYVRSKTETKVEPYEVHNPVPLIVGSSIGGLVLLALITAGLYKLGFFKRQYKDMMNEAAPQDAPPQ
T1 sequence (P11835 24-771 partner): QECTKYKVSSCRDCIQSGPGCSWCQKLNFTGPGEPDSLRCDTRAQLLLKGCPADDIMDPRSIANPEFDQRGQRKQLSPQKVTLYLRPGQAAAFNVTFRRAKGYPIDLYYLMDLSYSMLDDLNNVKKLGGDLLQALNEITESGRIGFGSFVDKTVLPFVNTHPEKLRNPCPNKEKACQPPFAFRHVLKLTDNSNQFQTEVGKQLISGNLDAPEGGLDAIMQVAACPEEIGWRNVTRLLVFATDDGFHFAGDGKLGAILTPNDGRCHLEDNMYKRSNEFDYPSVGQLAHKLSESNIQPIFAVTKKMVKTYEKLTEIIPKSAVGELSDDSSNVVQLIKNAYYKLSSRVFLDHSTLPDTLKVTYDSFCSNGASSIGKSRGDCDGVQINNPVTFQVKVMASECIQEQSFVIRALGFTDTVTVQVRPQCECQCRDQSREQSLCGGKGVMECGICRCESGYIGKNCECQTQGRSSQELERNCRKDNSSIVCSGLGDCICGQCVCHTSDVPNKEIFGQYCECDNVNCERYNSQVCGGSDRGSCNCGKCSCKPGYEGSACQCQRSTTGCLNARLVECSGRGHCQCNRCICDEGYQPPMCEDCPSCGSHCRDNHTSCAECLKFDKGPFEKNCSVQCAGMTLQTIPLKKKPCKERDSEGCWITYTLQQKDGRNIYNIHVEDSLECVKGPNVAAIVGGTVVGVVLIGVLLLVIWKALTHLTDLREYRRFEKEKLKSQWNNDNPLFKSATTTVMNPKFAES

Compound: O=C(O)c1ccc(-c2ccc(/C=C3\SC(=S)N(Cc4ccccc4)C3=O)o2)cc1 [LA1]
- solubility in vehicle formulation ([1]; 10% Tween80, 20% ETPGS and 30% Captisol, 10 mg/mL slurry, Mg-salt): 3000 to 4000 µg/mL
- solubility on re-dispersion in simulated biological fluids ([1]; SGF and FaSSIF, 10% Tween80 formulation): ~0.15 mg/mL
- phosphorylated ERK (pERK) and phosphorylated JNK (pJNK) [2]: did not induce any significant pERK or pJNK
- adhesion of RAW 264.7 cells to immobilized fibrinogen (CD11b/CD18 [3]): significantly and similarly increased the level of cell adhesion
- time to complete degradation of MyD88 (MyD88; LA1 alone, absence of LPS): less than 2 hours
- MyD88 degradation (MyD88; co-treatment with LPS, THP-1 cells): much faster degradation of MyD88
- adhesion of primary rat macrophages to immobilized fibrinogen (CD11b/CD18 [4]): significantly enhanced the level of macrophage adhesion
- engraftment of the donated kidney [5]: much better engraftment
- adverse findings in pilot in vitro ADME assay [6]: no adverse findings
